The results in this text go back to patent US20040137082A1, “Compounds and methods for reducing myostatin concentration” (priority 2003, published 2004).

This assay concerns myostatin protein. Description: Column chromatography of muscle homogenate over Cystoseira canariensis fractions in place of the heparin column, eluate read by SDS-PAGE and Western blot. Type of assay: binding, human. The note with it: fraction used as column in place of heparin, plus sepharose; crude muscle homogenate. The source says:
The testing involved the use of column chromatography analysis of Cystoseira canariensis fractions made as described herein. In the initial testing, the method described by Se-Jin-Lee and Alexandra McPherron, “Regulation of Myostatin Activity and Muscle Growth,” Proc. Nat'l Acad. Sci., Vol. 98, No. 16, pp. 9306-9311 (2001) (FIG. 1), was followed. FIG. 2 hereof provides an illustration of the experimental apparatus used. […]
Protein sodium dodecyl sulfate-polyacrylamide gel electrophoresis (“SDS-PAGE”) was performed with gradient gel from 10 to 20% acrylamide concentrations described by Laemmli UK, “Cleavage of Structural Proteins During 15 Assembly of the Head of Bacteriophage T4,” Nature, 227: 680-685 (1970). […] The supernatant fraction of each sample was removed and used to determine protein concentration by measuring absorbance at 280 nanometers (nm). […]
After transfer, membranes were blocked in buffer containing 0.5% Tween-20, 0.2% gelatin, and 3.0% dry milk (blocking buffer) for at least 1 hour at room temperature. […] The relative concentration of myostatin protein in each sample was determined by scanning densitometry. […]

In the case of heparin, the “affinity to myostatin (anti-myostatin Western blot of protein eluted from the chromatography column)” value was “cross-recognized 36-37 kDa protein”.
